This is an account of results in US8748417B2, “Amino-pyrrolidine-azetidine diamides as monoacylglycerol lipase inhibitors” (Janssen Pharmaceutica, NV, priority 2010, dated 2014).

Structures are written as SMILES. Numbering of substitutions follows the chain as printed.

Holding throughout (assay type): biochemical
For assay [1], the system named is MGL (rat brain homogenate). Description: 2-AG accumulation assay in rat brain homogenate. As to conditions: compound 1 μM, percent of vehicle 2-AG accumulation. Summed up: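 Rat brain homogenate was incubated with compound for 15 min at 37° C., after which CaCl2 was added to a final concentration of 10 mM and incubation continued for 15 min at 37° C. in 5 mL total. Reactions were stopped with 6 mL of 2:1 chloroform/methanol, and 2-AG accumulated in the organic phase was quantified by HPLC/MS.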

Assay [2] has as its target T1, purified wild type MGL (wt-MGLL 6H-11-313) (Homo sapiens, UniProt Q99685).
T1 construct: purified wild type MGL (wt-MGLL 6H-11-313)
T1 sequence (Q99685 1-303): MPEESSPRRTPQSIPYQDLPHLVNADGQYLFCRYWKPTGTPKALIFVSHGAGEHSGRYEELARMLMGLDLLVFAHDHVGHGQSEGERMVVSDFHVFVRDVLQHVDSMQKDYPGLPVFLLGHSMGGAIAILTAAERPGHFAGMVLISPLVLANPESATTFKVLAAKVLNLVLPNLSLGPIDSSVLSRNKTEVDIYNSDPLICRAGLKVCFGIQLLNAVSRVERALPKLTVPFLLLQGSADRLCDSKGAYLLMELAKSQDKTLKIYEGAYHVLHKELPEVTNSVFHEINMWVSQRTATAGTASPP
Description: MGL enzyme activity assay (4MU-B cleavage), wild type MGL. As to conditions: wild type MGL 5 nM, 4MU-B 10 μM, 37° C.; read-out: MGL wild type inh IC50. Summed up:
(§1)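 Enzyme in 20 mM PIPES pH 7.0, 150 mM NaCl, 0.001% Tween 20 with 4MU-B at 10 μM final and MGL at 5 nM final; compounds 17 to 0.0003 μM final, enzyme added last. Fluorescence (ex 335/em 440 nm) followed at 37° C for 5 min; IC50 from fit of fractional activity versus inhibitor concentration.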

Assay [3] addresses T2, purified mutant MGL (mut-MGLL 11-313 L179S L186S) (Homo sapiens, UniProt Q99685, L169S/L176S).
T2 construct: purified mutant MGL (mut-MGLL 11-313 L179S L186S)
T2 sequence (Q99685 1-303 L169S/L176S): T1 sequence (Q99685 1-303) with L169S, L176S
Nature of the assay: MGL enzyme activity assay (4MU-B cleavage), mutant MGL. As to conditions: mutant MGL 5 nM, 4MU-B 10 μM, 37° C.; read-out: MGL mutant inh IC50. In short, it runs like this:
as §1

Consider `CN(C1CN(C(=O)c2ccc(-c3cccc(C(F)(F)F)c3)cc2)C1)[C@H]1CCN(C(=O)c2ccccc2)C1` [Cpd 15, (3S)-N-Methyl-1-(phenylcarbonyl)-N-(1-{[3′-(trifluoromethyl)biphenyl-4-yl]carbonyl}azetidin-3-yl)pyrrolidin-3-amine], for which, in assay [1], the “Rat Brain 2AG % VehCntrl (%) @1 μM” value is 649%. For the same compound, the IC50 (commonly the concentration at which inhibition is half-maximal) in assay [2] is 26.5 nM; in assay [3] it was 11.7 nM.

For the compound `O=C(c1ccccc1)N1CC[C@H](NC2CN(C(=O)c3cc4cc(OC(F)(F)F)ccc4s3)C2)C1` [Cpd 18, (3S)-1-(Phenylcarbonyl)-N-(1-{[5-(trifluoromethoxy)-1-benzothiophen-2-yl]carbonyl}azetidin-3-yl)pyrrolidin-3-amine], the “Rat Brain 2AG % VehCntrl (%) @1 μM” value in assay [1] was 229%. Besides, the IC50 in assay [2] is 17.6 nM; in assay [3] it was 16.8 nM.

Consider `O=C(c1ccc2c(-c3cccc(C(F)(F)F)c3)cccc2c1)N1CC(N[C@H]2CCN(C(=O)c3ccccc3)C2)C1` [Cpd 25, (3S)-1-(Phenylcarbonyl)-N-[1-({5-[3-(trifluoromethyl)phenyl]naphthalen-2-yl}carbonyl)azetidin-3-yl]pyrrolidin-3-amine], for which the “Rat Brain 2AG % VehCntrl (%) @1 μM” value in assay [1] came out at 823%. Also, the IC50 in assay [2] was below 5 nM; in assay [3] it was 7 nM.

In the case of `O=C(c1ccccc1)N1CC[C@H](NC2CN(C(=O)c3sc4cc(C(F)(F)F)ccc4c3Cl)C2)C1` [Cpd 28, (3S)-N-(1-{[3-Chloro-6-(trifluoromethyl)-1-benzothiophen-2-yl]carbonyl}azetidin-3-yl)-1-(phenylcarbonyl)pyrrolidin-3-amine], the “Rat Brain 2AG % VehCntrl (%) @1 μM” value in assay [1] was 511%. Further, the IC50 in assay [3] was below 5 nM.

As to `O=C(c1ccc(-c2cccc(Cl)c2)cc1)N1CC(N[C@H]2CCN(C(=O)c3ccccc3)C2)C1` [Cpd 29, (3S)-N-{1-[(3′-Chlorobiphenyl-4-yl)carbonyl]azetidin-3-yl}-1-(phenylcarbonyl)pyrrolidin-3-amine], the “Rat Brain 2AG % VehCntrl (%) @1 μM” value in assay [1] was 163%. The IC50 in assay [2] worked out at 9.8 nM; in assay [3], 11 nM.

As to `O=C(c1ccc(-c2ccc(Cl)c(Cl)c2)cc1)N1CC(N[C@H]2CCN(C(=O)c3ccccc3)C2)C1` [Cpd 30, (3S)-N-{1-[(3′,4′-Dichlorobiphenyl-4-yl)carbonyl]azetidin-3-yl}-1-(phenylcarbonyl)pyrrolidin-3-amine], the “Rat Brain 2AG % VehCntrl (%) @1 μM” value in assay [1] is given as 155%. The half-inhibitory concentration (IC50) in assay [2] was found to be 7 nM; in assay [3] it was 8.8 nM.

Turning to `O=C(c1ccccc1)N1CC[C@H](NC2CN(C(=O)c3sc4cc(-c5ccccc5)ccc4c3Cl)C2)C1` [Cpd 31, (3S)-N-{1-[(3-Chloro-6-phenyl-1-benzothiophen-2-yl)carbonyl]azetidin-3-yl}-1-(phenylcarbonyl)pyrrolidin-3-amine], the “Rat Brain 2AG % VehCntrl (%) @1 μM” value in assay [1] came to 323%. In addition, the values for the IC50 in assay [2] and in assay [3] were below 5 nM and 5 nM, respectively.

As to `O=C(c1ccccc1)N1CC[C@H](NC2CN(C(=O)c3sc4cc(-c5cccc(C(F)(F)F)c5)ccc4c3Cl)C2)C1` [Cpd 32, (3S)-N-[1-({3-Chloro-6-[3-(trifluoromethyl)phenyl]-1-benzothiophen-2-yl}carbonyl)azetidin-3-yl]-1-(phenylcarbonyl)pyrrolidin-3-amine], the “Rat Brain 2AG % VehCntrl (%) @1 μM” value in assay [1] is reported as 524%. The IC50 in assay [2] and in assay [3] was below 5 nM throughout.

In the case of `O=C(c1ccccc1)N1CC[C@H](NC2CN(C(=O)c3sc4cc(-c5ccc(C(F)(F)F)cc5)ccc4c3Cl)C2)C1` [Cpd 33, (3S)-N-[1-({3-Chloro-6-[4-(trifluoromethyl)phenyl]-1-benzothiophen-2-yl}carbonyl)azetidin-3-yl]-1-(phenylcarbonyl)pyrrolidin-3-amine], in assay [1], the “Rat Brain 2AG % VehCntrl (%) @1 μM” value came to 499%. Further, the IC50 in assay [2] and in assay [3] was below 5 nM throughout.

As to `O=C(c1ccc2c(Br)cccc2c1)N1CC(N(O)[C@H]2CCN(C(=O)c3ccccc3)C2)C1` [Cpd 34, (3S)-N-{1-[(5-Bromonaphthalen-2-yl)carbonyl]azetidin-3-yl}-N-hydroxy-1-(phenylcarbonyl)pyrrolidin-3-amine], the “Rat Brain 2AG % VehCntrl (%) @1 μM” value in assay [1] is 645%. Also, the IC50 in assay [3] was 13.2 nM.

With `Cc1c(C(=O)N2CC(N[C@H]3CCN(C(=O)c4ccccc4)C3)C2)sc2ccc(Cl)cc12` [Cpd 37, (3S)-N-{1-[(5-Chloro-3-methyl-1-benzothiophen-2-yl)carbonyl]azetidin-3-yl}-1-(phenylcarbonyl)pyrrolidin-3-amine], in assay [1], the “Rat Brain 2AG % VehCntrl (%) @1 μM” value stood at 381%. For the same compound, the IC50 in assay [3] was determined as 47.7 nM.

In the case of `Cc1c(C(=O)N2CC(N[C@H]3CCN(C(=O)c4ccccc4)C3)C2)sc2ccc(-c3cccc(C(F)(F)F)c3)cc12` [Cpd 41, (3S)-N-[1-({3-Methyl-5-[3-(trifluoromethyl)phenyl]-1-benzothiophen-2-yl}carbonyl)azetidin-3-yl]-1-(phenylcarbonyl)pyrrolidin-3-amine], in assay [1], the “Rat Brain 2AG % VehCntrl (%) @1 μM” value is on record as 1102%. Also, the half-maximal inhibitory concentration (IC50) in assay [2] is below 5 nM; in assay [3] it was 6.3 nM.

With `O=C(c1ccccc1)N1CC[C@H](NC2CN(C(=O)c3cc4ccc(-c5cccc(C(F)(F)F)c5)cc4s3)C2)C1` [Cpd 44, (3S)-1-(Phenylcarbonyl)-N-[1-({6-[3-(trifluoromethyl)phenyl]-1-benzothiophen-2-yl}carbonyl)azetidin-3-yl]pyrrolidin-3-amine], the “Rat Brain 2AG % VehCntrl (%) @1 μM” value in assay [1] is 839%. For the same compound, the results for the IC50 in assay [2] and in assay [3] were 9 nM and 31.7 nM, respectively.

On to `CCN(C1CN(C(=O)c2ccc(-c3cccc(C(F)(F)F)c3)cc2)C1)[C@H]1CCN(C(=O)c2ccccc2)C1` [Cpd 53, (3S)-N-Ethyl-1-(phenylcarbonyl)-N-(1-{[3′-(trifluoromethyl)biphenyl-4-yl]carbonyl}azetidin-3-yl)pyrrolidin-3-amine], for which the “Rat Brain 2AG % VehCntrl (%) @1 μM” value in assay [1] is 164%. Also, the results for the IC50 in assay [2] and in assay [3] were 286 nM and 10 nM, respectively.

`O=C(c1ccc(-c2cccc(C(F)(F)F)c2)cc1)N1CC(N(O)[C@H]2CCN(C(=O)c3ccccc3)C2)C1` [Cpd 54, (3S)-N-Hydroxy-1-(phenylcarbonyl)-N-(1-{[3′-(trifluoromethyl)biphenyl-4-yl]carbonyl}azetidin-3-yl)pyrrolidin-3-amine]: the “Rat Brain 2AG % VehCntrl (%) @1 μM” value in assay [1] worked out at 242%. Moreover, the IC50 in assay [2] was 58.8 nM; in assay [3], below 5 nM.

Consider `O=C(c1ccccc1)N1CC[C@H](NC2CN(C(=O)c3sc4ccccc4c3Br)C2)C1` [Cpd 55, (3S)-N-{1-[(3-Bromo-1-benzothiophen-2-yl)carbonyl]azetidin-3-yl}-1-(phenylcarbonyl)pyrrolidin-3-amine], for which the “Rat Brain 2AG % VehCntrl (%) @1 μM” value in assay [1] is on record as 247%. Also, the concentration for half-maximal inhibition (IC50) in assay [2] was 20.2 nM; in assay [3], below 5 nM.

Consider `O=C(c1ccccc1)N1CC[C@H](NC2CN(C(=O)c3sc4cc(F)ccc4c3Cl)C2)C1` [Cpd 56, (3S)-N-{1-[(3-Chloro-6-fluoro-1-benzothiophen-2-yl)carbonyl]azetidin-3-yl}-1-(phenylcarbonyl)pyrrolidin-3-amine], for which, in assay [1], the “Rat Brain 2AG % VehCntrl (%) @1 μM” value is given as 222%. Moreover, the IC50 is 68.4 nM in assay [2] and below 5 nM in assay [3].

Take `Cc1c(C(=O)N2CC(N[C@H]3CCN(C(=O)c4ccccc4)C3)C2)sc2ccccc12` [Cpd 68, (3S)-N-{1-[(3-Methyl-1-benzothiophen-2-yl)carbonyl]azetidin-3-yl}-1-(phenylcarbonyl)pyrrolidin-3-amine]: in assay [1], the “Rat Brain 2AG % VehCntrl (%) @1 μM” value was 161%. The IC50 in assay [3] was 84.5 nM.

In the case of `O=C(c1ccccc1)N1CC[C@H](NC2CN(C(=O)c3sc4cc(F)ccc4c3C3CC3)C2)C1` [Cpd 70, (3S)-N-{1-[(3-Cyclopropyl-6-fluoro-1-benzothiophen-2-yl)carbonyl]azetidin-3-yl}-1-(phenylcarbonyl)pyrrolidin-3-amine], the “Rat Brain 2AG % VehCntrl (%) @1 μM” value in assay [1] worked out at 217%. In addition, in assay [3], the IC50 was determined as 25.5 nM.

Regarding `O=C(c1ccc(C(F)(F)c2ccccc2)cc1)N1CC(N[C@H]2CCN(C(=O)c3ccccc3)C2)C1` [Cpd 73, (3S)-N-[1-({4-[Difluoro(phenyl)methyl]phenyl}carbonyl)azetidin-3-yl]-1-(phenylcarbonyl)pyrrolidin-3-amine], in assay [1], the “Rat Brain 2AG % VehCntrl (%) @1 μM” value stood at 441%. Besides, the IC50 in assay [3] turned out to be 15.8 nM.
